Data from ChEMBL document CHEMBL4507291 (2021).

How the values were obtained:
[1] = target: Adenosine Transporter (Cavia porcellus, UniProt H0V4R7+H0UUG1+H0V3Z5); assay: (§1) Inhibition of Transporter, Adenosine at compound concentration of 10.0 uM in the Eurofins-Panlabs radioligand binding assay (Eurofins_assay_202000); type: protein assay; set-up: ligand concentration 0.5 nM, non-specific ligand with concentration 5 uM Nitrobenzylthioinosine, incubation time 30 min, incubation temperature 25 C
[2] = target: Adenosine Transporter (Cavia porcellus) (UniProt H0V4R7+H0UUG1+H0V3Z5); assay: as §1; type: protein assay; set-up: ligand concentration 0.5 nM, non-specific ligand with concentration 5 uM Nitrobenzylthioinosine, incubation time 30 min, incubation temperature 25 C
[3] = target: Casein kinase I isoform epsilon (Homo sapiens) (UniProt P49674); assay: CSNK1E (CK1 epsilon) Kinase screen; settings: Compound concentration 1.0 uM
Casein kinase I isoform epsilon (Homo sapiens), sequence (P49674 whole entry, looked up, canonical isoform): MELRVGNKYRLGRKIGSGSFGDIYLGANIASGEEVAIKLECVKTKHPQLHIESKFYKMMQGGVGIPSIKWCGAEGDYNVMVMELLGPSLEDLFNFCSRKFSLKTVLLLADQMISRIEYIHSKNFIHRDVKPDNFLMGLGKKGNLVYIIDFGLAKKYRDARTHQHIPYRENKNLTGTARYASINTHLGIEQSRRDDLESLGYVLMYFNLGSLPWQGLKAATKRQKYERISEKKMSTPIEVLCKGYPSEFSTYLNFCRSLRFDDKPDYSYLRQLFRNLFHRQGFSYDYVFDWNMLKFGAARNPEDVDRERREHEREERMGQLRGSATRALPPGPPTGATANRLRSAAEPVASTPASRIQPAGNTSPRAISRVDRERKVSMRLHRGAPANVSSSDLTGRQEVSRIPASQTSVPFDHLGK

[4] = target: Serine/threonine-protein kinase B-raf (Homo sapiens) (UniProt P15056); assay: BRAF Kinase screen; settings: Compound concentration 1.0 uM
Serine/threonine-protein kinase B-raf (Homo sapiens), sequence (P15056 whole entry): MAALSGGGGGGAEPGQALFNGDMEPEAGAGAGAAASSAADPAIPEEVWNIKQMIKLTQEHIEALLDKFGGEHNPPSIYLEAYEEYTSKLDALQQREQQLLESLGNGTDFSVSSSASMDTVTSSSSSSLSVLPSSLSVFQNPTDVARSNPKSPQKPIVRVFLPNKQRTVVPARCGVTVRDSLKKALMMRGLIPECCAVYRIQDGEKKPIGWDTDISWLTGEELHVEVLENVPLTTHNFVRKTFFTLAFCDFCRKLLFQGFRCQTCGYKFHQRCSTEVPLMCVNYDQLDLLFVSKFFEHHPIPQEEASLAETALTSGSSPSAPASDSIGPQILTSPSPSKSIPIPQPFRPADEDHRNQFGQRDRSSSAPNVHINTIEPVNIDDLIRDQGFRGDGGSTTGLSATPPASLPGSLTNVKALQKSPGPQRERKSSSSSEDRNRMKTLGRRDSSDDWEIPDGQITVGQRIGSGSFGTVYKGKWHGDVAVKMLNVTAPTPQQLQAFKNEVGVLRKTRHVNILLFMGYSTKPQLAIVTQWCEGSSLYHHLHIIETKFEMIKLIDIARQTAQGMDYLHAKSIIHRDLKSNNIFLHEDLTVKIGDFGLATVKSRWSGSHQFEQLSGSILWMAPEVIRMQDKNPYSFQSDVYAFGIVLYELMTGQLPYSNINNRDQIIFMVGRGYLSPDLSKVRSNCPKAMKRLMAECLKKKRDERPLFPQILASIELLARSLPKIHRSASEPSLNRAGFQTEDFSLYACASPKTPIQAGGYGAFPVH

[5] = target: Mitogen-activated protein kinase 11 (Homo sapiens) (UniProt Q15759); assay: MAPK11 (p38 beta) Kinase screen; settings: Compound concentration 1.0 uM
Mitogen-activated protein kinase 11 (Homo sapiens), sequence (Q15759 whole entry): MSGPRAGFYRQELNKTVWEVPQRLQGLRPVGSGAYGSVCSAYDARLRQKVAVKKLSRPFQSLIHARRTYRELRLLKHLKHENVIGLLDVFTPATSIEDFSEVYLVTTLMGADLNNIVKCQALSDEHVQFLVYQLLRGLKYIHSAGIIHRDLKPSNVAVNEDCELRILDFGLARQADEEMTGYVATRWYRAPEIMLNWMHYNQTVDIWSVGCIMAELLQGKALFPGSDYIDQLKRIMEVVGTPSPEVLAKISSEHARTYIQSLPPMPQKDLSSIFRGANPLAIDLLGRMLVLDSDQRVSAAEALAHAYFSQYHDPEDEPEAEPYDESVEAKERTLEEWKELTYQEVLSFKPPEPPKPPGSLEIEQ

[6] = target: Insulin-like growth factor 1 receptor (Homo sapiens) (UniProt P08069); assay: IGF1R Kinase screen; settings: Compound concentration 1.0 uM
Insulin-like growth factor 1 receptor (Homo sapiens), sequence (P08069 31-736 limits assumed): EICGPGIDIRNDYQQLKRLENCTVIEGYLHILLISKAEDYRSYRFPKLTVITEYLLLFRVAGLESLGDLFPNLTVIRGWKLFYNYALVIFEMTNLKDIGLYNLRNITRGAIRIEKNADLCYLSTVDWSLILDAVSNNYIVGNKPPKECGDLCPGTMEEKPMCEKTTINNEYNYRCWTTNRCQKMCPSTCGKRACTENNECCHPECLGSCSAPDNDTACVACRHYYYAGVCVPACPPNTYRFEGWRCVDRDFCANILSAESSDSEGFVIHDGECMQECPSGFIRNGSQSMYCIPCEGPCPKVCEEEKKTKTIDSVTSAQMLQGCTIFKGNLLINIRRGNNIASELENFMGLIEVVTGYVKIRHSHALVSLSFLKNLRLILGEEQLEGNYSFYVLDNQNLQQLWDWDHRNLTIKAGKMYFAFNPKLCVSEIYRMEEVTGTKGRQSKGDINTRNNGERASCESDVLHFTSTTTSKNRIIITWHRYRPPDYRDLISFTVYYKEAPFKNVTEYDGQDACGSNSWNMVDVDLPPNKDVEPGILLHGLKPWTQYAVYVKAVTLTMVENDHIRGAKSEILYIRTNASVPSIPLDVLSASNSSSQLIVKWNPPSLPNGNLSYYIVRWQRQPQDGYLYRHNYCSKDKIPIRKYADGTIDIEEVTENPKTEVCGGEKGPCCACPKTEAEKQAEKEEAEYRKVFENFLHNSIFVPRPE
Insulin-like growth factor 1 receptor (Homo sapiens), sequence (P08069 741-1367 limits assumed): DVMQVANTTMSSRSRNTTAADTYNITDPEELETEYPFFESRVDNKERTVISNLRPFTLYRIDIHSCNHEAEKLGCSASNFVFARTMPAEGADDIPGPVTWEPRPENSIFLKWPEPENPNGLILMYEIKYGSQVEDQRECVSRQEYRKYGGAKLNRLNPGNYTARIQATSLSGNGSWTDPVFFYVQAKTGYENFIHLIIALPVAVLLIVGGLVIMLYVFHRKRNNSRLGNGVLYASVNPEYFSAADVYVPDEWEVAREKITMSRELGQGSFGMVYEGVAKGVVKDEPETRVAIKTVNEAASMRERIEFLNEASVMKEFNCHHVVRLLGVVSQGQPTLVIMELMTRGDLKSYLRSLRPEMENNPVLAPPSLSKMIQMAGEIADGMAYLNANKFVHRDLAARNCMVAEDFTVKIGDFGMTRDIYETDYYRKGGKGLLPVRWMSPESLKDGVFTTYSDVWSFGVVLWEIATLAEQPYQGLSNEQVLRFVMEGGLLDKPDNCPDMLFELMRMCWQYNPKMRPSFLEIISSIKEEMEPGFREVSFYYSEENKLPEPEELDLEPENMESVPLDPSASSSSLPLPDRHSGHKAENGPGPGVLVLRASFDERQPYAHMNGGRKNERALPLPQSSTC

[7] = target: NT-3 growth factor receptor (Homo sapiens) (UniProt Q16288); assay: NTRK3 (TRKC) Kinase screen; settings: Compound concentration 1.0 uM
NT-3 growth factor receptor (Homo sapiens), sequence (Q16288 32-839 limits assumed): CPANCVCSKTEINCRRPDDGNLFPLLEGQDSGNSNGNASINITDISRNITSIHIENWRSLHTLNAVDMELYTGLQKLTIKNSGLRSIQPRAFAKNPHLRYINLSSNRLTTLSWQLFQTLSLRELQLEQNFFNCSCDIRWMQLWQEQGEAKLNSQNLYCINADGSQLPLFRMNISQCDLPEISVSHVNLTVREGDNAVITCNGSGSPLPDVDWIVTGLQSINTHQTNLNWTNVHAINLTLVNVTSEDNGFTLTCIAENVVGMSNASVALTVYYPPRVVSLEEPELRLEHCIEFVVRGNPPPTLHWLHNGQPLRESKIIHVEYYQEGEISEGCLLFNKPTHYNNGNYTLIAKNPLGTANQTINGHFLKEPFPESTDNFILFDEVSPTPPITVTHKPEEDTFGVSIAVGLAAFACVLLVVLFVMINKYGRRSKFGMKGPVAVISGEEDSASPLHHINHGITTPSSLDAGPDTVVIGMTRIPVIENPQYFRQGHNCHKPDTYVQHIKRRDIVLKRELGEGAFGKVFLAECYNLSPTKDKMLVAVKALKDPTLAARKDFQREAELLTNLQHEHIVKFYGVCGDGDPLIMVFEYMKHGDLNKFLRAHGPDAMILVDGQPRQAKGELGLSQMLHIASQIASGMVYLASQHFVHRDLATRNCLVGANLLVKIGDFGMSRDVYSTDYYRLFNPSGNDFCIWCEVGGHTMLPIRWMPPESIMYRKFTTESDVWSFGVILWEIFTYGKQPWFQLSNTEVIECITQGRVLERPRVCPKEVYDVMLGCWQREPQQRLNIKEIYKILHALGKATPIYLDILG

[8] = target: T1, Tyrosine-protein kinase JAK3 (Homo sapiens) (UniProt P52333); assay: JAK3 Kinase screen; settings: Compound concentration 1.0 uM
T1 sequence (whole entry): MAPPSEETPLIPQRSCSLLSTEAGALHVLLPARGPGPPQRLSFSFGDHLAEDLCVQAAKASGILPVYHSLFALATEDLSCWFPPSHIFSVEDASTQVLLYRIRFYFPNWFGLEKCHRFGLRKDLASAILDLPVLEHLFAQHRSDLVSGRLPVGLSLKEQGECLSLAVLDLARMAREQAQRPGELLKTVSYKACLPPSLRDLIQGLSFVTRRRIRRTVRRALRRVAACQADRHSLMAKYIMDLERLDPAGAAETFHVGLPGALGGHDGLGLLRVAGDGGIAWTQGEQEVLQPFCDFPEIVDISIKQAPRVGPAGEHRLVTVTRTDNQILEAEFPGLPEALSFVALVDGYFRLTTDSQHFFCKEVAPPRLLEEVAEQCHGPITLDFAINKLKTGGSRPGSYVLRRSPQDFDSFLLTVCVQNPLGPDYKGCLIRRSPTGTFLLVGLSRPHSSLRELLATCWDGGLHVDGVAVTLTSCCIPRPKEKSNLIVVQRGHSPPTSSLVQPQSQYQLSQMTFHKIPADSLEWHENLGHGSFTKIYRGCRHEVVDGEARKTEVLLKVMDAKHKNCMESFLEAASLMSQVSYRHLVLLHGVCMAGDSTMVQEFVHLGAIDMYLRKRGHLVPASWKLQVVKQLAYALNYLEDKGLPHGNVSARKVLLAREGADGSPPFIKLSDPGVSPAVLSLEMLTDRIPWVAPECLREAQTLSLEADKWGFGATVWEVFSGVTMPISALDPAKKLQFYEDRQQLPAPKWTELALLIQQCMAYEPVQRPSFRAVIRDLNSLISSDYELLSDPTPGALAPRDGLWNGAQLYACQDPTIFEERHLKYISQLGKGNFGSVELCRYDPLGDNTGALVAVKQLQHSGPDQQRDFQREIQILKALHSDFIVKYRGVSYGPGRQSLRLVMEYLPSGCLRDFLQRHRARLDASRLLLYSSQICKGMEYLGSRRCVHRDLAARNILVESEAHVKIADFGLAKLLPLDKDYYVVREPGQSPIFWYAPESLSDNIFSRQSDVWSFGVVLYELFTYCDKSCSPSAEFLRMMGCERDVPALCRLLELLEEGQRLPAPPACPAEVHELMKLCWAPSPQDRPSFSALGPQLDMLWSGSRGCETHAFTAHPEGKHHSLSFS

[9] = target: T2, Mitogen-activated protein kinase kinase kinase kinase 2 (Homo sapiens) (UniProt Q12851); assay: MAP4K2 (GCK) Kinase screen; settings: Compound concentration 1.0 uM
T2 sequence (whole entry): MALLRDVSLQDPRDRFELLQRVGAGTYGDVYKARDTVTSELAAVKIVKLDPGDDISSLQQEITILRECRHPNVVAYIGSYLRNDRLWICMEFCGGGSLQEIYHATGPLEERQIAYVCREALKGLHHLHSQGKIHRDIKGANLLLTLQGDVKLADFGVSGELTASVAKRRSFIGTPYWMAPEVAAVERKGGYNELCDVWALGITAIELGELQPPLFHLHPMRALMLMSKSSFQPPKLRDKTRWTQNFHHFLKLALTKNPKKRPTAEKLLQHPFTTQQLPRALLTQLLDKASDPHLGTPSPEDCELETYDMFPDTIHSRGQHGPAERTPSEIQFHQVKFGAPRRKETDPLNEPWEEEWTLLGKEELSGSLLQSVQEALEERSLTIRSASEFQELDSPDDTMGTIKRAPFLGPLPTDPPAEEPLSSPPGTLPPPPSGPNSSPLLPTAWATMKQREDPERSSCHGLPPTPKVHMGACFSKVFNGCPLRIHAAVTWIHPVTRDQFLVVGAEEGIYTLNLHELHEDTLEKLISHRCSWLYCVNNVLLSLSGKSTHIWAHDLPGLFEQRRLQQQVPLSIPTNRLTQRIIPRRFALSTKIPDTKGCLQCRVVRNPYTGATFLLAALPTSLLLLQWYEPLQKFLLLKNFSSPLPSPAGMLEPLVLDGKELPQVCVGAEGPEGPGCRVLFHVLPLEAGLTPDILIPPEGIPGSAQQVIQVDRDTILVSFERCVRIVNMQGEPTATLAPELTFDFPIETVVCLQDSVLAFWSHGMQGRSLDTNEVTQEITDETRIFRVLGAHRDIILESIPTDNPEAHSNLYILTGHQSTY

[10] = target: Fibroblast growth factor receptor 1 (Homo sapiens) (UniProt P11362); assay: FGFR1 Kinase screen; settings: Compound concentration 1.0 uM
Fibroblast growth factor receptor 1 (Homo sapiens), sequence (P11362 22-822 limits assumed): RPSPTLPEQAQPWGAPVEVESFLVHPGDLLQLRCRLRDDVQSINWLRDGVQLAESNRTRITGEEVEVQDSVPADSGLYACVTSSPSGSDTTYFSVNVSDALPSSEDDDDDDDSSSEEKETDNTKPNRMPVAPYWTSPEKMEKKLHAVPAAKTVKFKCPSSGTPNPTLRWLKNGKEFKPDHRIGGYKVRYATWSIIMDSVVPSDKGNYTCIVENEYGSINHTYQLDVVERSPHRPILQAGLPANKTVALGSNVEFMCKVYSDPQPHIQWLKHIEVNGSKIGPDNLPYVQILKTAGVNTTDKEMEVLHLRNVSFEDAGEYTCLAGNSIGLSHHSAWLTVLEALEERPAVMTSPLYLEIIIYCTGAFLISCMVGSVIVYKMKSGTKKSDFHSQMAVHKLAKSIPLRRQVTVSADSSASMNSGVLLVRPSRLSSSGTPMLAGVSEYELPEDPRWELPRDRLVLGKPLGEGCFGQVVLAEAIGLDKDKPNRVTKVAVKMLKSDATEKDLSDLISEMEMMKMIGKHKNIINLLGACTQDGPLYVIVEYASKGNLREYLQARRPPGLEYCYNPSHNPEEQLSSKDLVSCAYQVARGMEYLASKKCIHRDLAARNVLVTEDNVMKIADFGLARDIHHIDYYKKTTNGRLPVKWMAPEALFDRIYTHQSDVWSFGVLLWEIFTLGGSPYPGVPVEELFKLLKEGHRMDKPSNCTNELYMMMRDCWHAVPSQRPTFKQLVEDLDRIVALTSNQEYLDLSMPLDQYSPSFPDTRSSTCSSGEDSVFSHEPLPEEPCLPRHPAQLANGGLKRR

[11] = target: T3, Serine/threonine-protein kinase Sgk2 (Homo sapiens) (UniProt Q9HBY8); assay: SGK2 Kinase screen; settings: Compound concentration 1.0 uM
T3 sequence (whole entry): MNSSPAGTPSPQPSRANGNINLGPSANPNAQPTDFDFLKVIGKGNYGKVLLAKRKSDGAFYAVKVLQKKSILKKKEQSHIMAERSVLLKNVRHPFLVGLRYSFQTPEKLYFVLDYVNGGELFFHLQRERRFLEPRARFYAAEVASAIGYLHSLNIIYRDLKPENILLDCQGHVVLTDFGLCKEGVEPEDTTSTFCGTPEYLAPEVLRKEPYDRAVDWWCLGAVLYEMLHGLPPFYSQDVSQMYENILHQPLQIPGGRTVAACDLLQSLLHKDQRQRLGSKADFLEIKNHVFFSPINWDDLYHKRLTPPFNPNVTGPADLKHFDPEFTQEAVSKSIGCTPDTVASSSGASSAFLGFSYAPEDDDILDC

SMILES: C[C@@H]1CN(c2cc(-c3n[nH]c4ccc(OC5(C)CC5)cc34)ncn2)C[C@H](C)O1 [MLi-2]
- IC50 [1]: 9.7 µM
- Ki [1]: 3.32 µM
- inhibition ([2]; Compound concentration 0.01 uM): 2%
- inhibition ([2]; Compound concentration 0.1 uM): -1%
- inhibition ([2]; Compound concentration 1.0 uM): 11%
- inhibition ([2]; Compound concentration 10.0 uM): 51%
- inhibition [3]: 8.14%
- inhibition [4]: 27.1%
- inhibition [5]: 13%
- inhibition [6]: 1.96%
- inhibition [7]: 14.9%
- inhibition [8]: 7.05%
- inhibition [9]: 30.9%
- inhibition [10]: 3.88%
- inhibition [11]: 1.36%
